“And” between values parts separate entries of the source, which are not always exact repeats. Identical values can stand only once. Like-named read-outs stand apart in the source and are kept apart here. Ends that are not written are not given here. A value given as a limit tells only on which side of the number the result lay.

For orientation: IC50 means the concentration at which inhibition is half-maximal. A lower IC50 goes with inhibition by little substance.

Experiment [1] has as its system HSV1. Format: cell-based, herpes simplex virus type 1. The settings on record: for antiviral activity against HSV1 (in words): HSV1 plaque assay, Vero cells. On the procedure:
African Green Monkey Kidney (Vero) cells were maintained in Eagle's minimum essential medium with Earle's salt (EMEM) and supplemented with 10% foetal calf serum (heat-inactivated), 4 mM L-glutamine, and 1% (v/v) nonessential amino acids, plus penicillin and streptomycin (100 IU/ml and 100 μg/ml, respectively) (maintenance medium referred to as 10% EMEM). The cells were incubated at 37° C. in a humidified atmosphere of air with 5% CO2.
On harvesting, monolayers were washed in phosphate-buffered saline (PBS), and dislodged by incubating with trypsin in PBS for 30 min, before inactivating trypsin by addition of an equal volume of 10% EMEM and centrifuging at 500 g (5 min, 4° C.). Cell pellets were resuspended in 10% EMEM, prior to cell counting and seeding of 24-well plates. For antiviral assays, medium containing only 0.5% FCS was used (referred to as 0.5% EMEM).
Three separate passages of HSV1 virus were prepared by infecting Vero cells, and preparing semi-pure suspensions of virus from tissue culture supernatant and cell lysates, before freezing aliquots of virus at −85° C. Viral infectivity was assessed by carrying out plaque assays on serial dilutions of thawed aliquots (expressed in pfu/ml).
Peptides were obtained in lyophilised form from a commercial supplier (AltaBioscience, University of Birmingham or Advanced Biomedical), and were produced at 5 micromole scale. N-terminals were protected by addition of an acetyl group, and the C-terminals were protected by addition of an amide group.
Small quantities of peptide were weighed in sterile Eppendorf tubes, before addition of sufficient 0.5% EMEM to produce a 1.5 mM stock solution, which was frozen at −20° C. in aliquots.
(§1) Vero cells were seeded at 125,000 cells per well in 10% EMEM, and were incubated overnight resulting in confluent monolayers. Peptides were diluted in 0.5% EMEM to give 2× final desired concentration, and 100 μl aliquots were arranged on 96-well plates in arrangement to be used for 24-well plate; control wells containing normal 0.5% EMEM were also prepared. Virus stocks (p3) were thawed, and diluted in 0.5% EMEM such that there were around 100 pfu in 100 μl. Each 24-well plate was inoculated separately. Firstly 100 μl of virus stock was added to the peptide or control medium arranged on a 96-well plate. This was incubated at 37° C. for ten minutes before inoculation. Medium was removed from four wells of a 24-well plate containing confluent Vero, and the 200 μl inoculum added to the appropriate well. Once all wells were treated, the 24-well plate was incubated for a further 60-80 minutes. Finally the peptide-containing inoculum was removed, and 1 ml of 1% EMEM containing 1% carboxymethylcellulose was added to each well. Plates were incubated for a further 22 hours, before removal of overlay, and addition of 10% formaldehyde in PBS. After a further one hour incubation, fixative was removed, monolayers washed several times with tap water, and stained with carbol fuchsin solubilised in water. After 30 minutes stain was removed, and plates washed several times with tap water, before being air dried. Plaques were counted using an Olympus IX70 Inverting Microscope, and antiviral effect expressed as a percentage of the control value for each peptide concentration. The IC50 was calculated from plots of inhibitory effect against peptide concentration.
The methods employed were as described in Examples 1-4 expect peptides were prepared as 400 μM stocks in phosphate buffered saline (PBS).

Experiment [2] relates to HSV1. Put plainly: HSV1 plaque formation in Vero cells (Example 1). Format: cell-based, herpes simplex virus type 1. On the procedure: (§2) FIG. 1 and table 1 show typical results for the test for anti-HSV1 activity. The assay involved treating confluent Vero cells in 24-well plates with medium containing virus and varying amounts of peptide for one hour, followed by removal of this inoculum, and addition of viscous ‘overlay’ medium, containing 0.2% high viscosity carboxymethylcellulose. The overlay medium only allows infection of those cells immediately adjacent to an infected cell. After 2 days incubation and then fixation and staining, small patches of infected cells (or ‘plaques’) are visible, which are counted. Each of these corresponds to the infection of a single cell during the one hour inoculation. ApoE141-149dp produced a 40% reduction in plaque number at a concentration of around 20 μM. Note the peptide was only present in the experimental system for 1 hour.

Another experiment has as its system HSV2. Put plainly: HSV2 plaque formation in HEp-2 cells (Example 1). Format: cell-based, herpes simplex virus type 2. The settings on record: HSV2, HEp-2 cells. On the procedure:
as §2
FIG. 2 and table 2 show typical results for the test for anti-HSV2 activity. The assay was carried out as for the anti-HSV1 assay, except Hep-2 cells were used rather than Vero cells. ApoE141-149dp produced a 50% reduction in plaque number at a concentration of around 20 μM. Again note that the peptide was only present in the experimental system for 1 hour.

In the next experiment the test system is HIV-1. To be noted: 7 days; for % Decrease in HIV p24 Production, Mean ± sd / % Decrease in HIV p24 Production, Exp. 1-3: U937 cells.
The next experiment concerns bacteria. To be noted: Azuma et al., Peptides, 21: 327-330 (2000); cited from earlier work.
A further experiment deals with HSV2 clinical isolates. Format: cell-based, herpes simplex virus type 2. On the procedure:
as §1
Plaque assays were performed. The methodology was as described in previous Examples for HSV1 plaque assays (including usage of Vero cells) except HSV2 clinical isolates (provided by Prof. Anthony Hart of Liverpool University) were employed instead.

Setting [3] is: 5 μM peptide, untreated mean 152 ± 10.7.

Experimental for HIV-1: The assay was carried out by incubating HIV infected U937 cells in the presence of various levels of peptide for 7 days, followed by assay for levels of the HIV protein p24 in the cells using an Enzyme Linked Immunoabsorbant Assay (ELISA) technique.

“Ac-HMLDVMQDHFSRASSIIDEL (N-terminus assumed) [GIN 29]” returned an IC50 with HSV1 [1] of 38.5 µM.
The same measure, in the same setting: then “Ac-RLRARMEEMRLRARMEEM-NH2 (N-terminus and C-terminus assumed) [GIN 15]”, with over 40 µM.
On to “ApoE263-286: peptide from a region of apolipoprotein E that is not involved in HSPG receptor binding (SWFEPLVEDMQRQWAGLVEKVQAA; UniProt P02649 281-304, looked up, fragment)”, for which the “Plaque number, wells 1-4” value with HSV1 [2] (5 μM peptide in inoculum for 1 hour, untreated mean 107 ± 14.2) is 113 and 119 and 122 and 126; in the experiment on HSV1 [2] (10 μM peptide) it was 116 and 124 and 102; in the experiment on HSV1 [2] (20 μM peptide), 148 and 112 and 133 and 114; with HSV1 [2] (30 μM peptide) it was 134 and 109 and 114 and 125; with HSV1 [2] (40 μM peptide), 120 and 113 and 125 and 144; with HSV2 (setting [3]), 135 and 160 and 161 and 152. Moreover, the “Plaque number, wells 1-4” value with HSV2 (10 μM peptide) is 157 and 121 and 151 and 134; in the experiment with HSV2 (20 μM peptide) it was 118 and 150 and 182 and 134; in the experiment on HSV2 (30 μM peptide), 118 and 117 and 103 and 159; in the experiment on HSV2 (40 μM peptide) it was 132 and 144 and 125 and 124. Further, the “Plaque number, Mean ± sd” value was 120 ± 5.5 in the experiment with HSV1 [2] (5 μM peptide, untreated mean 107 ± 14.2); 114 ± 11.1 in the experiment on HSV1 [2] (10 μM peptide); 127 ± 17.0 with HSV1 [2] (20 μM peptide); 121 ± 11.2 in the experiment with HSV1 [2] (30 μM peptide); 126 ± 11.2 in the experiment on HSV1 [2] (40 μM peptide); 152 ± 12.0 with HSV2 (setting [3]). For the same substance, the “Plaque number, Mean ± sd” value with HSV2 (10 μM peptide) is listed as 141 ± 16.1; in the experiment with HSV2 (20 μM peptide) it was 146 ± 27.3; with HSV2 (30 μM peptide), 124 ± 24.2; in the experiment on HSV2 (40 μM peptide), 131 ± 24.2. In addition, in the experiment on HIV-1 (HIV infected U937 cells, 20 μM), the reduction in infectivity came to 20%. Moreover, the “% Decrease in HIV p24 Production, Mean ± sd” value in the experiment with HIV-1 (10 μM peptide) came out at 23.21 ± 12.79%; in the experiment on HIV-1 (20 μM peptide) it was 22.77 ± 13.07%; with HIV-1 (30 μM peptide), 35.85 ± 7.21%; with HIV-1 (40 μM peptide), 38.87 ± 12.70%; in the experiment with HIV-1 (50 μM peptide) it was 40.16 ± 6.25%. The “% Decrease in HIV p24 Production, Exp. 1-3” value is 37.94% and 27.83% and 41.78% in the experiment on HIV-1 (30 μM peptide); 33.36% and 41.45% and 45.66% with HIV-1 (50 μM peptide).
“ApoE 133-162: peptide derivative of apoE with antibacterial action (Azuma et al.) (LRVRLASHLRKLRKRLLRDADDLQKRLAVY; UniProt P02649 151-180, looked up, fragment)”: the “antibacterial action (in words)” value with bacteria was “most effective”.
Regarding “GERLRARMEGERLRARME-NH2 (C-terminus assumed) [GIN 14]”, in the experiment on HSV1 [1], the 50% inhibitory concentration (IC50) is over 40 µM and the “antiviral activity against HSV1 (in words)” value (“antiviral activity” below) is “no antiviral activity”.
In the experiment on HSV1 [1], “HRWRKRWRKHRWRKRWRK-NH2 (C-terminus assumed) [MU_36]” showed an IC50 of 10 µM.
Take “HRWRKRWRKWRWRKRWRK-NH2 (C-terminus assumed) [MU_31]”: inhibition with HSV1 [1] was half-maximal at 7.5 µM (IC50). This IC50 and that of the substance before are within 1.5-fold of each other.
On the same count and under the same terms, the same measure for “KRWRKRWRKKRWRKRWRK-NH2 (C-terminus assumed) [MU_34]”: 9 µM.
On the same count and under the same terms, the same measure for “KRWRKRWRKWRWRKRWRK-NH2 (C-terminus assumed) [MU_29]”: 7.5 µM.
Take “LRKRKRLLRKRKRL-NH2 (C-terminus assumed) [GIN 37]”: in the experiment with HSV1 [1], the midpoint of inhibition, the IC50, lay at 9 µM and the “antiviral activity” value is “have antiviral activity”.
On the same counts, the results for “LRKRKRLRKLRKRKRLRK-NH2 (C-terminus assumed) [GIN 38]” are 9 µM and “have antiviral activity”.
“LRTRKRGRKLRTRKRGRK-NH2 (C-terminus assumed) [GIN 16]” came in with a half-maximal inhibitory concentration (IC50) in the experiment with HSV1 [1] of 22 µM. Moreover, the “antiviral activity” value with HSV1 [1] is given as “showed antiviral activity”; in the experiment on HSV1 [1] (listed as GIN16) it was “appreciable antiviral effect”.
In the experiment on HSV1 [1], “LRWRKRWRKLRWRKRWRK-NH2 (C-terminus assumed) [MU_35]” gave an IC50 of over 15 µM.
Same read-out and setting: then “LRWRKRWRKWRWRKRWRK-NH2 (C-terminus assumed) [MU_30]”, with 7.5 µM.
For the substance “RRWRKRWRKRRWRKRWRK-NH2 (C-terminus assumed) [MU_33]”, the figures for the half-inhibitory concentration (IC50) with HSV1 [1] and with HSV2 clinical isolates were 6.5 µM and over 20 µM, respectively.
Substance “RRWRKRWRKWRWRKRWRK-NH2 (C-terminus assumed) [MU_28]” came in with an IC50 with HSV1 [1] of 7.5 µM. That is a single-digit micromolar value.
In the case of “RTRKRGRKRTRKRGRK-NH2 (C-terminus assumed) [GIN 35]”, in the experiment on HSV1 [1], the midpoint of inhibition, the IC50, lay at 9 µM and the “antiviral activity” value is recorded as “have antiviral activity”.
As for “RTRKRGRRTRKRGR-NH2 (C-terminus assumed) [GIN 36]”, in the experiment with HSV1 [1], the IC50 is 9 µM and the “antiviral activity” value is reported as “have antiviral activity”.
“RTRKRWRKRTRKRGRK-NH2 (C-terminus assumed) [MU_70]”: the 50% inhibitory concentration (IC50) with HSV1 [1] was 9.5 µM; in the experiment with HSV2 clinical isolates, over 20 µM.
As to “RWRKRGRKRWRKRGRK-NH2 (C-terminus assumed) [MU_69]”, the IC50 in the experiment on HSV1 [1] came to 13 µM.
Same read-out and setting: then “RWRKRWRKRWRKRWRK-NH2 (C-terminus assumed) [MU_37]”, with 12.5 µM.
“RWRKRWRKRWRKRWRK-NH2 (C-terminus assumed) [MU_71]” yielded a half-maximal inhibitory concentration (IC50) in the experiment on HSV1 [1] of 16 µM. This IC50 and that of the substance before are within 1.5-fold of each other.
In the case of “RWRKRWRKWRWRKRWRK-NH2 (C-terminus assumed) [MU_32]”, the IC50 in the experiment with HSV1 [1] was 7.5 µM; in the experiment on HSV2 clinical isolates, over 20 µM.
Substance “RWRKRWRWRKRWRWRKRW-NH2 (C-terminus assumed) [MU_84]” gave a half-maximal inhibitory concentration (IC50) in the experiment with HSV1 [1] of 10 µM. This counts as double-digit micromolar.
Regarding “apoE 134-155: peptide derivative of apoE tested for antibacterial action (Azuma et al.) (RVRLASHLRKLRKRLLRDADDL; UniProt P02649 152-173, looked up, fragment)”, the “antibacterial action (in words)” value in the experiment on bacteria was “little effect”.

The record behind these values is US8017579B2, “Treatment of viral infections” (priority 2003, dated 2011).
